Holding throughout (format): cell-based
One assay deals with PDGF-R (Rattus norvegicus, UniProt Q05030). The experiment in a line: PDGF-R autophosphorylation inhibition screening (dot plotting), vascular smooth muscle cells, PDGF-BB. As to conditions: for inhibition at 1 µM: figure in parentheses in −( ), at 1000 nM, read-out: PDGF (D) inhibition (%) at 1000 nM; for IC50: PDGF (D) column. The protocol:
PDGF-R Autophosphorylation Inhibition Screening (Dot Plotting)
Vascular smooth muscle cells (passage 5 to 10) collected from rat thoracic aorta by the explant method were planted at 8×10^3 cells per well in 96-well plates, subject to a serum starvation state, and 24 hr after the plantation then assayed.
A test compund was added, and the mixture was incubated at 37° C. for one hr. Thereafter, PDGF-BB was added to 50 ng/ml, and the mixture was incubated for 5 min, followed by washing with cold PBS. Lysate buffer (20 μl/well) was then added, SDS buffer ([…]) was added thereto, and 2 μl of the mixture was then spotted on a PDVF membrane.
Treatment was carried out with anti-mouse IgG which had been labelled with peroxidase after treatment with an anti-phosphotyrosine antibody, followed by development in an ECL color development kit (Amersham). Thereafter, the color intensity was quantitatively determined by image analysis.

In the next assay the target is T1, c-kit (Homo sapiens, UniProt P10721).
T1 construct: MO7e (human megakaryocytic leukemia cell line) which had been arrested for 20 hr; endogenous in cells; host or cells: MO7e human megakaryocytic leukemia cell line
T1 sequence (P10721 26-976): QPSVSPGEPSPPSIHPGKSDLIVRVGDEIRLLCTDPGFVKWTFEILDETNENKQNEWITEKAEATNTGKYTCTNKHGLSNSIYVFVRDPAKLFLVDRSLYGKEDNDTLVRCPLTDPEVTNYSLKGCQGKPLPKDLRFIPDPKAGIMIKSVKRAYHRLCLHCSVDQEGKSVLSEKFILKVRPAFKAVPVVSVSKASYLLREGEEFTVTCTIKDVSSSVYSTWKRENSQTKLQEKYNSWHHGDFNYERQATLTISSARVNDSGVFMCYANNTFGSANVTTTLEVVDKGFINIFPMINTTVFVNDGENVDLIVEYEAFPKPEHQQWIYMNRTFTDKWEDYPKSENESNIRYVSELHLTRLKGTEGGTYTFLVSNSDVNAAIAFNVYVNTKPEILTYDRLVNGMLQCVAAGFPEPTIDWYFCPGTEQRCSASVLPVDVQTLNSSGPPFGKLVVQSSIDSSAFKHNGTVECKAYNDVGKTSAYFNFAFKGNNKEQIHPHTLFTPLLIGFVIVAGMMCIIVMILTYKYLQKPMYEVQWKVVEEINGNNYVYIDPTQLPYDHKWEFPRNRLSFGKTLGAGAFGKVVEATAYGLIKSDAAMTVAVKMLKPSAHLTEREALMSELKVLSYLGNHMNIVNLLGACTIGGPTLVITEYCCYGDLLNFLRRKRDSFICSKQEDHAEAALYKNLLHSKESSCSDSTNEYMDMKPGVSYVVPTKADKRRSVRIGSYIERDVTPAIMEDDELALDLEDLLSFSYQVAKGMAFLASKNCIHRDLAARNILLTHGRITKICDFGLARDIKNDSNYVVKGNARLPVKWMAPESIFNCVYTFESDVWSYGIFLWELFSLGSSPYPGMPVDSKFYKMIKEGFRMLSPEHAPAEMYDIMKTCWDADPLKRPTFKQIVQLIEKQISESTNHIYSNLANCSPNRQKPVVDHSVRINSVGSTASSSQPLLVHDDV
The experiment in a line: Inhibitory activity against c-kit autophosphorylation (MO7e cells, h-SCF). As to conditions: for inhibition at 1 µM: Mo7e; for IC50: MO7e cells, read-out: c-kit IC50. The procedure, abridged:
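Ligand-induced c-kit tyrosine phosphorylation is measured in MO7e cells that were quiesced 20 hr and preincubated with compound for 1 hr prior to a 5 min pulse of 50 ng/ml human SCF. Phospho-c-kit is detected by anti-phosphotyrosine capture ELISA, A450.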

The next assay deals with T2, PDGF-Ra (Homo sapiens, UniProt P16234).
T2 construct: host or cells: G-292 human osteosarcoma cells
T2 sequence (P16234 24-1089): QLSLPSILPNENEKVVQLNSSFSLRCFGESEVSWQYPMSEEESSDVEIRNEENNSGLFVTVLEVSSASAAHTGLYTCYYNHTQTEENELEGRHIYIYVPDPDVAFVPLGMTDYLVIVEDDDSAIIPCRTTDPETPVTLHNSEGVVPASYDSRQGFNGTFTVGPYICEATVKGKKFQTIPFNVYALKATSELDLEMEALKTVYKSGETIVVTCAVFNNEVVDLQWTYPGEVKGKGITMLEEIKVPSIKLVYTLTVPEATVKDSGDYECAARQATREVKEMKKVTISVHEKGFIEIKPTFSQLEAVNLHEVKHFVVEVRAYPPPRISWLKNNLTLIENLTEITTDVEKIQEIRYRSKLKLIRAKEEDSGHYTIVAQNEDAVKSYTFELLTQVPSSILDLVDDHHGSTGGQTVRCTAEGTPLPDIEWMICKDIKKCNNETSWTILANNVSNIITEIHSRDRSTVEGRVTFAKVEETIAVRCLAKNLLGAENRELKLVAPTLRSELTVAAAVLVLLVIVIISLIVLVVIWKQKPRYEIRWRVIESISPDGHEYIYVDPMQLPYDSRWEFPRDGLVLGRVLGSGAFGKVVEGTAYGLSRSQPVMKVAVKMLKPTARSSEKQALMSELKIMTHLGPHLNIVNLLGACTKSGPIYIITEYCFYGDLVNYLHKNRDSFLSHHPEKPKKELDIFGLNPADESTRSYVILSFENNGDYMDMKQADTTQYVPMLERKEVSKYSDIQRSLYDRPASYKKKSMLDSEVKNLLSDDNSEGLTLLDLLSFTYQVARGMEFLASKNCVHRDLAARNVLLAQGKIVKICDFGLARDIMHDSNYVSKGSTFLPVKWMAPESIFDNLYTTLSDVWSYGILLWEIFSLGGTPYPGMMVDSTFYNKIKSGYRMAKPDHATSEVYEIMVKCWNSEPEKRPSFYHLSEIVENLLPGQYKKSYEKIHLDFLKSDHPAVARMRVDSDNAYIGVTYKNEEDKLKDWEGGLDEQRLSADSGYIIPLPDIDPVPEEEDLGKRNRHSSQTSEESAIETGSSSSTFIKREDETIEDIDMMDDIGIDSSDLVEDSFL
The experiment in a line: Inhibitory activity against PDGF-Ra phosphorylation by PDGF-AA stimulation using G292. As to conditions: > means inhibition at indicated concentration not more than 50%, < and << not less than 50%; read-out: PDGF (E) IC50. In short, it runs like this: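 In G-292 osteosarcoma cells kept overnight in 0.1% FBS, compound exposure (1 hr, 37 °C) preceded PDGF-AA stimulation at 50 ng/ml for 5 min; receptor phosphotyrosine was then detected by PY-20 capture ELISA.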

The mark [1] stands for this setting: figure in parentheses in −( ), at 1000 nM.

Like-named read-outs stand apart in the source and are kept apart here.

Sequence of PDGF-R (Q05030 32-1097): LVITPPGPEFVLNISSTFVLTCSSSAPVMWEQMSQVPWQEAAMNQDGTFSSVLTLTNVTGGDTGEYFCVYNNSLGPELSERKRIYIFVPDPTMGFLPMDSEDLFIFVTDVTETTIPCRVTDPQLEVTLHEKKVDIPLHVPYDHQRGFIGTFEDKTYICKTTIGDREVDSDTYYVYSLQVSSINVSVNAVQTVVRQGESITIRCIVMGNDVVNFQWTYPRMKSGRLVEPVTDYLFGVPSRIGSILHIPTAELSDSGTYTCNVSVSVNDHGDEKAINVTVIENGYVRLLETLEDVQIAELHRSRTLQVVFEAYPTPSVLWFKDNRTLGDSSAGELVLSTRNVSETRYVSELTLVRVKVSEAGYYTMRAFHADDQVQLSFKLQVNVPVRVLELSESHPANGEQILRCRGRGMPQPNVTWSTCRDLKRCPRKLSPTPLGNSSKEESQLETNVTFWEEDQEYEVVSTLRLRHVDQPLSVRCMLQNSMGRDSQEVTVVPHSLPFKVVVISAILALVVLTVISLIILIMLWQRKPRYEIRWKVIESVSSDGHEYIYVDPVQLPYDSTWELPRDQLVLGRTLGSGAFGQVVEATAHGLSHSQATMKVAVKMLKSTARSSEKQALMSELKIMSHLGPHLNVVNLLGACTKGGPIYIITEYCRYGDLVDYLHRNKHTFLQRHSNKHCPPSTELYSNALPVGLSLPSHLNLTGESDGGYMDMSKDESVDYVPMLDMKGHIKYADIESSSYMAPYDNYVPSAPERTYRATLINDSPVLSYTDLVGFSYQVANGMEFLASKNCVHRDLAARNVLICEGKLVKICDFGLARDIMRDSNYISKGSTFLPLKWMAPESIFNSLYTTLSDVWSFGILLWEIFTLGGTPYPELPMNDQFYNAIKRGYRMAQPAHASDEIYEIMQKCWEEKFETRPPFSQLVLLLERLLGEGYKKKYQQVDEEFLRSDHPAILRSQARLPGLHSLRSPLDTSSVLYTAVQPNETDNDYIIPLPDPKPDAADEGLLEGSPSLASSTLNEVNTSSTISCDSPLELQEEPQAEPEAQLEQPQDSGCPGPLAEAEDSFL

For `COc1cc2nccc(Oc3ccc(S(=O)(=O)CCOc4ccc(F)cc4)cc3)c2cc1OC` [Example 829, 4-[(6,7-Dimethoxy-4-quinolyl)oxy]phenyl [2-(4-fluorophenoxy)ethyl]sulfone], the results for the inhibition at 1 µM at PDGF-R and at c-kit (setting [1]) were 30% and 10%, respectively.

On to `COc1cccc(OCCS(=O)(=O)c2ccc(Oc3ccnc4cc(OC)c(OC)cc34)cc2)c1` [Example 830, 4-[(6,7-Dimethoxy-4-quinolyl)oxy]phenyl [2-(3-methoxyphenoxy)ethyl]sulfone], for which the inhibition at 1 µM on PDGF-R was determined as 23%; at c-kit (setting [1]) it was 10%.

For the molecule `COc1cc2nccc(Oc3ccc(S(=O)(=O)CCOc4ccc(Cl)cc4Cl)cc3)c2cc1OC` [Example 831, 2-(2,4-Dichlorophenoxy)ethyl{4-[(6,7-dimethoxy-4-quinolyl)oxy]phenyl}sulfone], the inhibition at 1 µM came out at 50% at PDGF-R and 19% at c-kit (setting [1]).

As for `COc1cc2nccc(Oc3ccc(S(=O)(=O)CCOc4cccc(Cl)c4)cc3)c2cc1OC` [Example 832, 2-(3-Chlorophenoxy)ethyl{4-[(6.7-dimethoxy-4-quinolyl)oxy]phenyl}sulfone], the figures for the inhibition at 1 µM at PDGF-R and on c-kit (setting [1]) were 35% and 21%, respectively.

`COc1cc2nccc(Oc3ccc(S(=O)(=O)CCOc4ccc(C)cc4)cc3)c2cc1OC` [Example 834, 4-[(6,7-Dimethoxy-4-quinolyl)oxy]phenyl [2-(4-methylphenoxy)ethyl]sulfone]: the inhibition at 1 µM on PDGF-R worked out at 23%; at c-kit (setting [1]) it was 1%.

Take `COc1cc2nccc(Oc3ccc(S(=O)(=O)CCOc4ccccc4F)cc3)c2cc1OC` [Example 837, 4-[(6,7-Dimethoxy-4-quinolyl)oxy]phenyl [2-(2-fluorophenoxy)ethyl]sulfone]: the inhibition at 1 µM at PDGF-R is 10%; on c-kit (setting [1]) it was 19%.

Take `COc1cc2nccc(Oc3ccc([S+]([O-])CCOc4ccc(F)cc4[N+](=O)[O-])cc3)c2cc1OC` (centres unmarked) [Example 839, {4-[(6,7-Dimethoxy-4-quinolyl)oxy]phenyl}[2-(4-fluoro-2-nitrophenoxy)ethyl] sulfoxide]: the inhibition at 1 µM at PDGF-R came to 24%; at c-kit (setting [1]) it was 30%.

Consider `CCCCCCCCCCCC(=O)NC(=S)Nc1ccc(Oc2ccnc3cc(OC)c(OC)cc23)cc1` [Example 1072, N-{4-[(6,7-Dimethoxy-4-quinolyl)oxy]phenyl}-N′-dodecanoylthiourea], for which the inhibition at 1 µM amounted to 34% at PDGF-R and 18% on c-kit (setting [1]).

Consider `CCCCCCCCCCCCCC(=O)NC(=S)Nc1ccc(Oc2ccnc3cc(OC)c(OC)cc23)cc1` [Example 1073, N-{4-[(6,7-Dimethoxy-4-quinolyl)oxy]phenyl}-N′-tetradecanoylthiourea], for which the inhibition at 1 µM on PDGF-R turned out to be 23%; on c-kit (setting [1]), 20%.

With `CCCCCCCCCCCC(=O)NC(=S)Nc1ccc(Oc2ccnc3cc(OC)c(OC)cc23)cc1F` [Example 1075, N-{4-[(6,7-Dimethoxy-4-quinolyl)oxy]-2-fluorophenyl}-N′-dodecanoylthiourea], the values for the inhibition at 1 µM at PDGF-R and on c-kit (setting [1]) were 17% and 31%, respectively.

As to `COc1cc2nccc(Oc3ccc(NC(=S)NC(=O)c4ccc([N+](=O)[O-])cc4)c(C)c3C)c2cc1OC` [Example 1081, N-{4-[(6,7-Dimethoxy-4-quinolyl)oxy]-2,3-dimethylphenyl}-N′-(4-nitrobenzoyl)thiourea], the inhibition at 1 µM on PDGF-R stood at 50%; at c-kit (setting [1]) it was 47%.

Consider `COc1cc2nccc(Oc3ccc(NC(=S)NC(=O)c4ccc(Cl)cc4Cl)c(C)c3C)c2cc1OC` [Example 1086, N-(2,4-Dichlorobenzoyl)-N′-{4-[(6,7-dimethoxy-4-quinolyl)oxy]-2,3-dimethylphenyl}thiourea], for which the inhibition at 1 µM on PDGF-R stood at 48%; at c-kit (setting [1]) it was 19%.

For the molecule `COc1cc2nccc(Oc3ccc(NC(=S)NC(=O)c4ccc([N+](=O)[O-])cc4)c(C)c3)c2cc1OC` [Example 1092, N-{4-[(6,7-Dimethoxy-4-quinolyl)oxy]-2-methylphenyl}-N′-(4-nitrobenzoyl)thiourea], the inhibition at 1 µM on PDGF-R worked out at 15%; at c-kit (setting [1]), 10%.

As to `COc1ccc(C(=O)NC(=S)Nc2ccc(Oc3ccnc4cc(OC)c(OC)cc34)cc2C)cc1` [Example 1095, N-{4-[(6,7-Dimethoxy-4-quinolyl)oxy]-2-methylphenyl}-N′-(4-methoxybenzoyl)thiourea], the values for the inhibition at 1 µM at PDGF-R and at c-kit (setting [1]) were 20% and 25%, respectively.

As for `COc1cc2nccc(Oc3ccc(NC(=S)NC(=O)c4ccc(C)cc4)c(C)c3)c2cc1OC` [Example 1096, N-{4-[(6,7-Dimethoxy-4-quinolyl)oxy]-2-methylphenyl}-N′-(4-methylbenzoyl)thiourea], the values for the inhibition at 1 µM at PDGF-R and on c-kit (setting [1]) were 30% and 3%, respectively.

For the molecule `COc1ccc(C(=O)NC(=S)Nc2ccc(Oc3ccnc4cc(OC)c(OC)cc34)cc2F)c(OC)c1` [Example 1123, N-(2,4-Dimethoxybenzoyl)-N′-{4-[(6,7-dimethoxy-4-quinolyl)oxy]-2-fluorophenyl}thiourea], on PDGF-R, the inhibition at 1 µM is 43%. Besides, the IC50 on c-kit (h-SCF stimulation) is 961 nM.

In the case of “N-{4-[(6,7-Dimethoxy-4-quinolyl)oxy]-2-fluorophenyl}-N′-(methylamino)urea [Example 611]”, the values for the IC50 against PDGF-R and on c-kit (50 ng/ml h-SCF) were 95 nM and 1070 nM, respectively.

As to “N-{4-[(6,7-Dimethoxy-4-quinolyl)oxy]-2-methoxyphenyl}-N′-(1-homopiperidinyl)urea [Example 600]”, the IC50 on PDGF-Ra was less than 10 nM; on c-kit (50 ng/ml h-SCF), 208 nM.

In turn, “{4-[(6,7-Dimethoxy-4-quinolyl)oxy]phenyl}[2-(3-methoxy-4-nitrophenoxy)ethyl] sulfoxide [Example 838]” had a half-inhibitory concentration (IC50) on PDGF-R (> means inhibition at indicated concentration not more than 50%, < not less than 50%) of 590 nM. Also, the “c-kit inhibition (%) at 1000 nM” value at c-kit (setting [1]) is listed as “−(23) %”.

For orientation: inhibition means the percentage by which the read-out fell short of the control. By IC50 is commonly meant the concentration that gives 50% inhibition.

The record behind these values is US7135466B2 (Kirin Beer Kabushiki Kaisha, priority 1999, dated 2006).
